Test results reported in patent US20250250308A1, “METHODS AND COMPOSITIONS WITH ANTIFUNGAL ACTIVITY” (priority 2022, published 2025).
Several values for one entry are separate records, joined by “and”; a condition that tells them apart may be missing. Identical values can stand only once.

B1: EntV: 68 amino acid active C-terminal form of the E. faecalis bacteriocin EntV (SEQ ID NO: 14) (protein, listed as Enterococcus faecalis)
chain: LGSCVANKIKDEFFAMISISAIVKAAQKKAWKELAVTVLRFAKANGLKTNAIIVAGQLALWAVQCGLS

Legend:
C. albicans [1] = experiment: Killing of C. elegans by C. albicans (survival of infected nematodes); type: in vivo; conditions: for Median survival: C. albicans infected C. elegans exposed to 1 nM peptide, one value per trial
Procedure: The α7 helix is sufficient to protect C. elegans and inhibit surface adhesion. Based on this structural characterization, fragments of EntV were examined to identify those structural moieties that retained antifungal activity. Synthetic peptides were generated of each of the four alpha helices (plus two flanking amino acids) from the active C-terminus of EntV—α4, α5, α6 and α7 (FIG. 1A) as well as an α4-α6 construct. The peptides were tested for their ability to protect C. elegans against C. albicans infection as established in previous work (Cruz et al., 2013; Graham et al., 2017).
Killing of C. elegans by C. albicans. The methodology used for the C. elegans infection assays was performed, with a few modifications, as described ((Breger et al., 2007; Cruz et al., 2013; Graham et al., 2017; Peleg et al., 2008)). Briefly, C. elegans glp-4(bn2); sek-1(km-4) (Breger et al., 2007) nematodes were propagated and maintained on E. coli strain OP50(Brenner, 1974) that was seeded onto nematode growth medium (NGM) agar using standard techniques (Hope, 1999). To synchronize the animals, L1 stage worms on non-starved plates were washed off, filtered through a 10 μm filter (pluriSelect, pluriStrainer 10 μm), harvested by centrifugation, transferred to OP50 seeded plates, and grown to the L4 stage. To prepare the infection plates, C. albicans strain […] (Gillum et al., 1984) was grown in YPD broth for 24 h at 37° C. with agitation. 500 μl of the culture was plated onto BHI solid medium containing gentamycin (10 μg/ml) and grown for 24 h at 37° C. The synchronized, L4 C. elegans were washed off the OP50 plates in 2 ml sterile M9 buffer and washed once, centrifuging at 750×g for 30 seconds to collect animals. Animals were infected by placing them on the SC5314 lawn for 4 h at 25° C. Following this exposure, they were washed off the plate and washed four times with 2 ml of sterile M9. The nematodes were then pipetted (˜30 per well with 2 wells per condition for a total of ˜60 worms assayed) into six-well plates with 2 ml of liquid medium (20% BHI broth and 80% M9) containing the indicated concentrations of test compounds. Plates were incubated at 25° C., and worm death was scored daily. Kaplan-Meier survival curves were generated and analyzed as described in the quantification and statistical analysis section.

C. albicans [2] = experiment: Rat venous catheter biofilm model; type: in vivo; conditions: 24 h
Procedure: The wild-type 12-mer (SEQ ID NO: 4) is protective in a rat venous catheter model of C. albicans infection. C. albicans can form prodigious biofilms on implanted medical devices and the presence of an intravenous catheter is, by itself, a significant risk factor for developing disseminated candidiasis. These infections are notoriously difficult to treat and are associated with the drug resistance characteristic of biofilms. Thus, full-length EntV was tested in a model in which an intravenous catheter is implanted into the jugular vein of rats and inoculated with C. albicans with or without the peptide. After 24 hours, the catheter is removed and sectioned to assess fungal burden by plating for CFUs and by scanning electron microscopy (SEM). […] As the minimal peptide length was determined, this model utilized along with the 12-mer peptide, this time at a lower concentration to probe the extent of protection.
Rat catheter model: The protocol for the rat catheter biofilm was conducted as previously described (Andes, et al., 2004). Briefly, indwelling central venous catheters in rats were inoculated with 1×10^6 cells/mL C. albicans with or without 100 nM EntV or 20 nM 12-mer peptide (group size was 3). To quantitate fungal burden after 24 h, the catheter was removed, and 1 cm of the tip placed in a one milliliter of sterile 0.9% NaCl followed by vortexing. A 1:10 serial dilution of this wash fluid was plated on SDA and colonies counted after 24 h of growth at 35° C. For scanning electron microscopy (SEM), catheters were fixed overnight in 4% formaldehyde and 1% glutaraldehyde in PBS. The catheters were then washed with PBS and treated with 1% osmium tetroxide in PBS for 30 min. Serial ethanol washes and critical point drying were used to dry the segments before they were mounted, and palladium-gold coated. All images were taken using a SEM LEO 1530, with Adobe Photoshop CC (20.0.4 release) used for image compilation.

C. albicans [3] = experiment: Intravenous (disseminated candidiasis) infection model, survival; type: in vivo, mouse; conditions: C. albicans pre-incubated with 100 nM for two hours prior to IV injection
Excerpt: The wild-type 12-mer is protective in a systemic mouse model of C. albicans infection. Systemic bloodstream infections by C. albicans are the most life-threatening to patients. Mortality rates from disseminated candidiasis exceed 40% and new treatments are in dire need. Since EntV impairs hyphal morphogenesis and biofilm formation rather than killing C. albicans (Graham et al., 2017), it was unclear if EntV and EntV derivatives would be protective in a systemic infection model. To increase the chances of observing an effect, C. albicans were pre-incubated with 100 nM of EntV or the 12-mer for two hours prior to intravenous (IV) injection of 1×10^5 CFU. […] The median survival of animals injected with C. albicans alone was 7.5 days and all animals had expired by 11 days.
Intravenous infection model. The disseminated candidiasis model was performed as described (Miramon and Lorenz, 2016; Williams and Lorenz, 2020). C. albicans SC5314 was grown overnight in YPD at 30° C., then diluted to a very low concentration and grown in a second overnight. The late-log phase culture was collected by centrifugation, washed in PBS, and diluted to 5×10^6 cells/ml in PBS containing vehicle (0.01% DMSO) or 100 nM EntV or the 12-mer peptide and incubated for 2 hours at room temperature. […] Animals were monitored at least twice daily for 21 days for signs of moribundity.

human cells = conditions: cited from earlier work
mouse cells = conditions: cited from earlier work

| Molecule | Protection of C. elegans from C. albicans infection (survival) (C. albicans [1]; 1 nM peptide) | Median survival (C. albicans [1]) | Catheter surface biofilm by SEM (C. albicans [2]; 20 nM) | Reduction of catheter fungal burden (C. albicans [2]; 20 nM) [logs] | Animals alive at end of experiment (day 22) (C. albicans [3]) | Catheter fungal burden (CFUs) (C. albicans [2]; 100 nM, detection limit 100 CFU) | Toxicity to human cells (human cells) | Toxicity to mouse cells (mouse cells) |
| --- | --- | --- | --- | --- | --- | --- | --- | --- |
| VAGQLALWAVQC [12aa] | as effective in protecting against C. albicans infection in the worm model and inhibiting surface adhesion as full-length EntV | 11 days and 10 days and 12 days and 10.5 days and 9.5 days | largely clear of fungal biofilm | 1.5 | about half the animals were still alive | – | – | – |
| B1 | – | 11 days and 10.5 days and 13 days and 12 days and 10 days and 9.5 days and 9 days | – | – | about half the animals were still alive | below the limit of detection | no toxicity | no toxicity |
